Our source for the EC50 values is patent US20130217652A1, “SULFINYLBENZYL AND THIOBENZYL DERIVATIVES AS SPHINGOSINE 1-PHOSPHATE (S1P) RECEPTOR MODULATORS” (ALLERGAN, INC., priority 2012, published 2013).

In this test the target is T1, human S1P1 receptor (Homo sapiens, UniProt P21453).
T1 construct: expressed in transfected cells; membranes used
The test can be described thus: GTP γ35S binding assay for S1P1 activity. The settings on record: membranes of cells stably expressing the S1P1 receptor, test compounds 0.08 to 5,000 nM, 30 min at 25° C. The class given is biochemical. As to the method: Compounds were synthesized and tested for S1P1 activity using the GTP γ^35S binding assay. These compounds may be assessed for their ability to activate or block activation of the human S1P1 receptor in cells stably expressing the S1P1 receptor.
GTP γ^35S binding was measured in the medium containing (mM) HEPES 25, pH 7.4, MgCl2 10, NaCl 100, dithitothreitol 0.5, digitonin 0.003%, 0.2 nM GTP γ^35S, and 5 μg membrane protein in a volume of 150 μl. Test compounds were included in the concentration range from 0.08 to 5,000 nM unless indicated otherwise. Membranes were incubated with 100 μM 5′-adenylylimmidodiphosphate for 30 min, and subsequently with 10 μM GDP for 10 min on ice. Drug solutions and membrane were mixed, and then reactions were initiated by adding GTP γ^35S and continued for 30 min at 25° C. Reaction mixtures were filtered over Whatman GF/B filters under vacuum, and washed three times with 3 mL of ice-cold buffer (HEPES 25, pH 7.4, MgCl2 10 and NaCl 100). Filters were dried and mixed with scintillant, and counted for ^35S activity using a β-counter. Agonist-induced GTP γ^35S binding was obtained by subtracting that in the absence of agonist. Binding data were analyzed using a non-linear regression method. In case of antagonist assay, the reaction mixture contained 10 nM S1P in the presence of test antagonist at concentrations ranging from 0.08 to 5000 nM. […] Activity potency: S1P1 receptor from GTP γ^35S: nM, (EC50),
Background: GTPγS is a poorly hydrolysed GTP analogue; its binding reports G protein activation.

T1 sequence (P21453 whole entry): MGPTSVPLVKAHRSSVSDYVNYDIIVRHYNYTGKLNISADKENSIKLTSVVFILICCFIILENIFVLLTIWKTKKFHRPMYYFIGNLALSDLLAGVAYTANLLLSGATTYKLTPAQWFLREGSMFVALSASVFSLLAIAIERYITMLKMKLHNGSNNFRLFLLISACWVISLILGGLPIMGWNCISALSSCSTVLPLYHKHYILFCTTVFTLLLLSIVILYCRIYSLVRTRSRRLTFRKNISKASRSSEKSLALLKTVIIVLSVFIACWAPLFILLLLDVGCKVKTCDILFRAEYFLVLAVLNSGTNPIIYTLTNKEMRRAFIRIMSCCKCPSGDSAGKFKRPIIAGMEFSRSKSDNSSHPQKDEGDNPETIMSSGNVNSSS

Usually EC50 stands for the midpoint of the concentration-response curve. Take `Cc1ccc(CC(CCCSc2ccc(CNCCCP(=O)(O)O)cc2)c2cc(F)cc(F)c2)cc1C` (centres unmarked) [Compound 5, {3-[(4-{[4-(3,5-difluorophenyl)-5-(3,4-dimethylphenyl)pentyl]thio}benzyl)amino]propyl}phosphonic acid]: the EC50 was 2.65 nM.

On to `Cc1ccc(CC(CCCC[S+]([O-])c2ccc(CNCCC(=O)O)cc2)c2cccc(Cl)c2)cc1C` (centres unmarked) [Compound 2, 3-[(4-{[5-(3-chlorophenyl)-6-(3,4-dimethylphenyl)hexyl]sulfinyl}benzyl)amino]propanoic acid], for which the EC50 came out at 631 nM.

For the compound `Cc1ccc(CC(CCCCSc2ccc(CNCCC(=O)O)cc2)c2cccc(Cl)c2)cc1C` (centres unmarked) [Compound 1, 3-[(4-{[5-(3-chlorophenyl)-6-(3,4-dimethylphenyl)hexyl]thio}benzyl)amino]propanoic acid], a half-maximal response (EC50) required 159 nM. Next, `Cc1ccc(CC(CCCSc2ccc(CNCCCP(=O)(O)O)cc2)c2cccc(Cl)c2)cc1C` (centres unmarked) [Compound 6, {3-[(4-{[4-(3-chlorophenyl)-5-(3,4-dimethylphenyl)pentyl]thio}benzyl)amino]propyl}phosphonic acid]: 0.76 nM; `Cc1ccc(CC(CCC[S+]([O-])c2ccc(CNCCC(=O)O)cc2)c2cccc(Cl)c2)cc1C` (centres unmarked) [Compound 3, 3-[(4-{[4-(3-chlorophenyl)-5-(3,4-dimethylphenyl)pentyl]sulfinyl}benzyl)amino]propanoic acid]: 81.7 nM.
